Entries after “also recorded” stand apart in the source; their conditions may differ.
Columns and labels:
CSF1R [1] = experiment: Baboon PET (baseline, LPS, LPS-plus-blocking)
CSF1R [2] = biological target: T1, CSF1R (Mus musculus, UniProt P09581); experiment: PET/CT imaging in EAE mice; type: in vivo; set-up: from tissue; host or cells: brain of living CD-1, C57BL/6J, transgenic APP (AD model), EAE and CSF1R KO mice
T1 sequence (P09581 20-977): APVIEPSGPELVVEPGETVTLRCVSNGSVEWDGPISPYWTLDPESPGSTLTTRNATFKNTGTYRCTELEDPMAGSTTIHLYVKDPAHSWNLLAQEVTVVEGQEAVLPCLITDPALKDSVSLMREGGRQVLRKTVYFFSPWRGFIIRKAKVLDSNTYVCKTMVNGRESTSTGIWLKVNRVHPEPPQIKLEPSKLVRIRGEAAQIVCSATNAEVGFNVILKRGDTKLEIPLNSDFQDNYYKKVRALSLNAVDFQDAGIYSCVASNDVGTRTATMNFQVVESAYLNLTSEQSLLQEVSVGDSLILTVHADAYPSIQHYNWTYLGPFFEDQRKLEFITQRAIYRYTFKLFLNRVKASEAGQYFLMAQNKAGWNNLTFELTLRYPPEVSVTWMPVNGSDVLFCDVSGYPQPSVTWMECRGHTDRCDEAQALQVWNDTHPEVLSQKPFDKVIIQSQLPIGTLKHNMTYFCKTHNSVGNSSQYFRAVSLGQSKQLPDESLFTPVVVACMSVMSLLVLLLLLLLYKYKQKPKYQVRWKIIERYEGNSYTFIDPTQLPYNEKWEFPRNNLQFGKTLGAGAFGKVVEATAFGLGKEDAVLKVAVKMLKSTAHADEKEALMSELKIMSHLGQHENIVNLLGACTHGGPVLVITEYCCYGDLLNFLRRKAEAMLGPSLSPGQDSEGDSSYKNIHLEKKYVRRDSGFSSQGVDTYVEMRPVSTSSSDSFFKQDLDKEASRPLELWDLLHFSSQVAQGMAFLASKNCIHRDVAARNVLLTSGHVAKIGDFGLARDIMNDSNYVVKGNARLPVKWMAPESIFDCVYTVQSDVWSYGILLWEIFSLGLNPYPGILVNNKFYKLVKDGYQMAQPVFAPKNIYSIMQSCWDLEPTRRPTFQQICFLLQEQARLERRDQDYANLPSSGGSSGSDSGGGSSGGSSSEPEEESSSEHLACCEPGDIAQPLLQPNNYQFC

[3] = Plasma free fraction, centrifree ultrafiltration; type: in vitro ADME; settings: baboon plasma, not affected by LPS or LPS and blocking
CSF1R [4] = biological target: CSF1R (Homo sapiens, UniProt P07333); experiment: Postmortem human brain autoradiography; type: binding; set-up: from tissue; settings: for Autoradiography binding, Baseline: inferior parietal cortex slices
Sequence of CSF1R (Homo sapiens, UniProt P07333) (P07333 20-972): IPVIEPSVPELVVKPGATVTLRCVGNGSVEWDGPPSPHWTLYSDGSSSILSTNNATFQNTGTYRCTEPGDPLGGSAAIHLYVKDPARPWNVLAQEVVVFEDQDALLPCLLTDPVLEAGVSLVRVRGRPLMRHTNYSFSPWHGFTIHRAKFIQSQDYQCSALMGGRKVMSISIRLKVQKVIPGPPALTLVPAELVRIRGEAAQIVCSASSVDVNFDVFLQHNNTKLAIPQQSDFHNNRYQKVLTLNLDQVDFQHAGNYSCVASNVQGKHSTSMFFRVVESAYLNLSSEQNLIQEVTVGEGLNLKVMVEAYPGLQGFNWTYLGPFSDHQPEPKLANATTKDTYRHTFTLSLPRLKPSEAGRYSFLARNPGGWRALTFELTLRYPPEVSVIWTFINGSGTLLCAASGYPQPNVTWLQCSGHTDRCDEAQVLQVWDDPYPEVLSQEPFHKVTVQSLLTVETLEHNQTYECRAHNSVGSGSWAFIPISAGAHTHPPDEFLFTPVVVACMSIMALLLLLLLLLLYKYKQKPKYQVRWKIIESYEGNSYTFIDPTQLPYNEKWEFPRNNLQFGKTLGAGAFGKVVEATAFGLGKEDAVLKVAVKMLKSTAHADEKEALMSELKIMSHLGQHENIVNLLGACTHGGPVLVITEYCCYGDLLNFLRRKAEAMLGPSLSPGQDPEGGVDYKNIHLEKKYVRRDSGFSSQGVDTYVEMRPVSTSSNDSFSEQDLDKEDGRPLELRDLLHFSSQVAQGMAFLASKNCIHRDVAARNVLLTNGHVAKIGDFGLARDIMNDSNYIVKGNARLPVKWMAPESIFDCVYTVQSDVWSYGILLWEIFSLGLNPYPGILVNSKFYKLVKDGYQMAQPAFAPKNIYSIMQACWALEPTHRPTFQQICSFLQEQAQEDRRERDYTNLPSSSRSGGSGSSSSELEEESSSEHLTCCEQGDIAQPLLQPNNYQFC
Source text: Use of human tissues has been approved by the Institutional Review Board of the Johns Hopkins Medical Institutions. […] The slides were exposed to X-ray film and analyzed with outcome expressed as pmol/mm^3 of wet tissue±SD.

CSF1R [5] = biological target: T1, CSF1R; experiment: Brain uptake in microglia-depleted vs control mice; type: in vivo; set-up: from tissue; host or cells: brain of living CD-1, C57BL/6J, transgenic APP (AD model), EAE and CSF1R KO mice; settings: whole brain % SUV, 45 min, PLX3397 chow 290 mg/kg for 3 weeks
Method: Male C57BL/6J mice (22-24 g) from Charles River Laboratories were purchased. […] The control C57BL/6J mice (5 animals) were fed with standard mouse chow for 3 weeks. On the last day of treatment, all animals were sacrificed by cervical dislocation at 45 min following injection of 5.0 MBq (0.135 mCi) [^11C]CPPC [specific radioactivity=475 GBq/μmol (12.8 Ci/μmol)] in 0.2 mL saline into a lateral tail vein. […] The outcome variables were calculated as % SUV.

CSF1R [6] = biological target: T1, CSF1R
CSF1R [7] = experiment: Brain uptake in CSF1R knock-out vs control mice; type: in vivo; settings: whole brain, 45 min
Method: B6.Cg-Csf1rtml.2Jwp/J (CSF1R knock-out, KO) mice (21-23 g; age=four to eight weeks; Jackson Laboratories, Bar Harbor, Me.) (5 animals) and age-matched C57BL/6J controls (23-27 g) (5 animals) were used. […] The outcome variables were calculated as % SUV.

[8] = male, baboon, in vivo, 90 min

Structure (SMILES): [11CH3]N1CCN(c2ccc(NC(=O)c3ccc(C#N)o3)c(N3CCCCC3)c2)CC1 [[^11C]CPPC, 5-cyano-N-(4-(4-[^11C]methylpiperazin-1-yl)-2-(piperidin-1-yl)phenyl)furan-2-carboxamide]
- parametric VT (CSF1R [1]; LPS-treated baboon (0.05 mg/kg i.v., 4 h before radiotracer)): 35-52
- K1 value, LPS-treated vs baseline (CSF1R [1]; baboon): changed only slightly
- decrease of metabolite-corrected radioactivity in plasma, LPS-treated vs. baseline (CSF1R [1]; baboon): ~50%
- parametric VT (CSF1R [1]; baboon baseline): 15-25
- peak SUV, brain (CSF1R [1]; baboon baseline, 20 min postinjection): 2.5-4.0
- increase of distribution volume (VT) values in all brain regions of LPS-treated animal (CSF1R [1]; baboon, LPS 0.05 mg/kg i.v.): More than a twofold increase
- VT in LPS-plus-blocking study (CSF1R [1]; baboon, blocker CPPC 1 mg/kg s.c. 1.5 h before radiotracer): reduction to the baseline level; also recorded: return to the baseline level
- brainstem uptake in EAE mice vs control animals (CSF1R [2]): up to twofold greater
- fraction unbound [3]: 0.0548 ± 0.0098
- increase of radiotracer binding in AD brain vs. control brain slices (CSF1R [4]; baseline autoradiography): 75-99%
- Autoradiography binding, Blocking with unlabeled CPPC (CSF1R [4]; sample 1-AD): 4.72 ± 1.07 pmol/mm3
- Autoradiography binding, Baseline (CSF1R [4]; sample 1-AD): 8.18 ± 0.68 pmol/mm3
- Autoradiography binding, Blocking with unlabeled CPPC (CSF1R [4]; sample 2-AD): 2.67 ± 0.53 pmol/mm3
- Autoradiography binding, Baseline (CSF1R [4]; sample 2-AD): 7.20 ± 1.55 pmol/mm3
- Autoradiography binding, Blocking with unlabeled CPPC (CSF1R [4]; sample 3-AD): 3.73 ± 1.07 pmol/mm3
- Autoradiography binding, Baseline (CSF1R [4]; sample 3-AD): 7.43 ± 1.59 pmol/mm3
- Autoradiography binding, Blocking with unlabeled CPPC (CSF1R [4]; sample 4-control): 2.86 ± 1.06 pmol/mm3
- Autoradiography binding, Baseline (CSF1R [4]; sample 4-control): 4.11 ± 1.14 pmol/mm3
- reduction in radiotracer uptake in microglia-depleted mouse brain vs controls (CSF1R [5]): 14%
- ex vivo binding potential (BPex vivo) (CSF1R [6]; LPS mice, (LPS uptake-sham uptake)/sham uptake): 0.53-0.62
- SUVR uptake in i.p.-LPS mice vs controls (CSF1R [6]; experiments 2 and 3, blood-corrected, 45 min): significantly greater
- blocking with nonradiolabeled CPPC, % SUV radioactivity (experiment 1) (CSF1R [6]; i.p.-LPS mice, CPPC 1 mg/kg IP, no blood correction): did not cause a significant reduction
- specific fraction of whole-brain binding (CSF1R [6]; i.p.-LPS mice, blocking with CPPC and compound 8): more than 50%
- brain uptake (% SUV) in CSF1R KO mouse brain vs. controls (CSF1R [7]): comparable
- total radiometabolites in blood [8]: 71-76%
